# Measured values taken from ChEMBL document CHEMBL1145844 (J Med Chem, 2003).
# What was measured:
# [1] = molecular target: T1, Delta-type opioid receptor (Homo sapiens, UniProt P41143); experiment: Binding affinity for human Opioid receptor delta 1 transfected into chinese hamster ovary cells by displacing [3H]CI-DPDPE radioligand; type: cell-based
# [2] = molecular target: T2, Kappa-type opioid receptor (Homo sapiens, UniProt P41145); experiment: Agonistic activity towards Opioid receptor kappa 1; type: functional
# T2 sequence (P41145 whole entry): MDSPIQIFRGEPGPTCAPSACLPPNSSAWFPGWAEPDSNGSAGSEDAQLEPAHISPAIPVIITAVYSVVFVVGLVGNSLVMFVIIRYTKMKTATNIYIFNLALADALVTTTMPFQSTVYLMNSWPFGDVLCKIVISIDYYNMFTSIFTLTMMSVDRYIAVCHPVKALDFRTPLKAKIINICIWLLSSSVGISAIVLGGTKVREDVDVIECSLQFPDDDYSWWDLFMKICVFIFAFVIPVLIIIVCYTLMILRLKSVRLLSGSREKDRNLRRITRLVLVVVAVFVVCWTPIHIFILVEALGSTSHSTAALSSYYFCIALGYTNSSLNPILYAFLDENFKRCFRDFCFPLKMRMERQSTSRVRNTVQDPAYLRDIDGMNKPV
# [3] = molecular target: Opioid receptors; mu & delta (Homo sapiens, UniProt P41143+P35372); experiment: Ratio of mu/delta-opioid receptors Binding affinity; type: protein assay
# [4] = molecular target: T2, Kappa-type opioid receptor; experiment: % stimulation of [35S]GTP-gamma-S, binding of compound in recombinant human Opioid receptor kappa 1 transfected into CHO cells; type: functional, cell-based
# [5] = molecular target: Opioid receptors; delta & kappa (Homo sapiens, UniProt P41145+P41143); experiment: Ratio of kappa/delta-opioid receptors Binding affinity; type: protein assay
# Mu-type opioid receptor [6] = molecular target: T3, Mu-type opioid receptor (Homo sapiens, UniProt P35372); experiment: Effective concentration agonistic activity towards Opioid receptor mu 1; type: functional
# T3 sequence (P35372 whole entry): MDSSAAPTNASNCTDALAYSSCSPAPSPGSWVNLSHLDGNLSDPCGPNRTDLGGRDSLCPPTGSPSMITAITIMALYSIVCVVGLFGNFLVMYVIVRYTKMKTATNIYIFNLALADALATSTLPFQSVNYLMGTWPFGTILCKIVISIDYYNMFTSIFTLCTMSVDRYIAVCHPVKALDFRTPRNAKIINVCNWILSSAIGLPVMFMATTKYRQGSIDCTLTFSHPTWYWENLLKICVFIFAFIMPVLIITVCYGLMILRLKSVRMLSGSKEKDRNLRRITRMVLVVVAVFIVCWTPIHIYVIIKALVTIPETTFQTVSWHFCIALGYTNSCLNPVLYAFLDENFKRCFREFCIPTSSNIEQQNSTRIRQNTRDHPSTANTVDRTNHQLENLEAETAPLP
# [7] = molecular target: T1, Delta-type opioid receptor; experiment: % stimulation of [35S]GTP-gamma-S, binding in recombinant human Opioid receptor delta 1 transfected into CHO cells; type: functional, cell-based
# Mu-type opioid receptor [8] = molecular target: T3, Mu-type opioid receptor; experiment: Binding affinity for human Opioid receptor mu 1 transfected into chinese hamster ovary cells by displacing [3H]DAMGO radioligand; type: cell-based
# [9] = molecular target: T1, Delta-type opioid receptor; experiment: Agonistic activity towards Opioid receptor delta 1; type: functional
# Mu-type opioid receptor [10] = molecular target: T3, Mu-type opioid receptor; experiment: % stimulation of [35S]GTP-gamma-S, binding in recombinant human Opioid receptor mu 1 transfected into CHO cells; type: functional, cell-based
# [11] = molecular target: T2, Kappa-type opioid receptor; experiment: Binding affinity in recombinant human Opioid receptor kappa 1 transfected into chinese hamster ovary cells by displacing [3H]U-69593 radioligand; type: cell-based
# [12] = molecular target: T2, Kappa-type opioid receptor; experiment: Agonistic activity towards opioid receptor kappa 1; type: functional
# T1 sequence (P41143 whole entry): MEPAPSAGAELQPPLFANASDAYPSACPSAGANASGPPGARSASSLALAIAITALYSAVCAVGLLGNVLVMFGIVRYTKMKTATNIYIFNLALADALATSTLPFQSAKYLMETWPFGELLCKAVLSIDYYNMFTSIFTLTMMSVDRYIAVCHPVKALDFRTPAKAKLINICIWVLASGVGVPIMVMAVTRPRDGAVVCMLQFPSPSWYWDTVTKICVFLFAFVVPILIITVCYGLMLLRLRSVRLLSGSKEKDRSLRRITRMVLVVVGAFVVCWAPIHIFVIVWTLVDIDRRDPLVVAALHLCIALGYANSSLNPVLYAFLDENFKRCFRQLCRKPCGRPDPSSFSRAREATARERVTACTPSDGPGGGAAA
Compound,Ki [1],EC50 [2],Ki [3],Stimulation [4],Ki [5],EC50 (Mu-type opioid receptor [6]),Stimulation [7],Ki (Mu-type opioid receptor [8]),EC50 [9],Stimulation (Mu-type opioid receptor [10]),Ki [11],EC50 [12]
COc1ccc2c(c1O)[C@]13CCN(C)C(C2)[C@]12CCC(=O)[C@H]3/C(=C(\C)c1ccccc1)C2,5.66 nM,3.38 nM,0.8,116%,0.02,15.2 nM,108%,4.54 nM,72.3 nM,108%,0.14 nM,–
CC(C)=CC[C@@]12Cc3c([nH]c4ccccc34)[C@]3(C)Oc4c(O)ccc5c4[C@]13CCN(C)C2C5,51.4 nM,945 nM,4.9,31%,8.6,1200 nM,43%,254 nM,90.1 nM,72%,440 nM,–
COc1ccc2c(c1O)[C@]13CCN(C)C(C2)[C@@]12C/C(=C(/C)c1ccccc1)[C@@H]3c1[nH]c3ccccc3c1C2,23.2 nM,82.4 nM,0.6,97%,0.03,139 nM,168%,13.4 nM,368 nM,144%,0.61 nM,–
C/C=C1\C[C@@]23Cc4c([nH]c5ccccc45)[C@@H]1[C@@]21CCN(C)C3Cc2ccc(OC)c(O)c21,82.5 nM,–,1.5,36%,2.9,1640 nM,–,122 nM,221 nM,41%,239 nM,2210 nM
COc1ccc2c(c1O)[C@]13CCN(C)C(C2)[C@]12CCC(=O)[C@H]3/C(=C/c1ccccc1)C2,5.5 nM,17.5 nM,0.08,85%,0.04,6.7 nM,80%,0.43 nM,4.19 nM,123%,0.2 nM,–
COc1ccc2c(c1O)[C@]13CCN(C)C(C2)[C@@]12C/C(=C\c1ccccc1)[C@@H]3c1[nH]c3ccccc3c1C2,15.9 nM,323 nM,0.4,83%,2.2,44.7 nM,87%,6.3 nM,42.6 nM,110%,34.6 nM,–
COc1ccc2c(c1O)[C@]13CCN(C)C(C2)[C@@]12CC(=C(C)C)[C@@H]3c1[nH]c3ccccc3c1C2,103 nM,866 nM,3.2,44%,0.3,1020 nM,–,330 nM,211 nM,52%,28.4 nM,–
CN1CC[C@]23c4c5ccc(O)c4O[C@@]2(C)c2[nH]c4ccccc4c2C[C@@]3(C/C=C/c2ccccc2)C1C5,12.5 nM,2050 nM,3.5,60%,7.5,804 nM,79%,43.8 nM,21.8 nM,85%,94.2 nM,–
